# Columns and labels:
# [1] = tested on: carrageenan-induced rat paw edema; assay: Carrageenan-induced rat paw edema model; type: in vivo, Wistar albino rats; settings: for Rat paw thickness: mean ± SD; for inhibition in vivo at 2.5 mg/kg / inhibition in vivo at 5 mg/kg / inhibition in vivo at 10 mg/kg: Rattus norvegicus, po
# Protocol: In vivo assessment of anti-inflammatory activity of compounds 1–7 was conducted in the carrageenan-induced rat paw edema model. Inflammation in all rats was induced by an intraplantar injection of […] of 0.5% carrageenan saline in the left hind paw. Two hundred male Wistar albino rats (180–210 g) were divided into seven experimental (n = 168 rats, 8 rats per subgroup) and two control groups (n = 32 rats, 8 rats per subgroup).
# Experimental groups involved rats that received compounds 1–7, and they were divided into three subgroups: rats received compounds 1–7 per os in three doses (2.5 mg/kg, 5 mg/kg, and 10 mg/kg) dissolved in 1% DMSO for 60 min before inducing inflammation.
# In order to quantify the anti-inflammatory effect, the thickness of the left paw tissue of each rat was measured at the following time intervals: immediately before inducing inflammation (moment 0) and 1, 2, 3, and 4 h (moments 1, 2, 3, and 4) after inflammation. Tissue thickness was measured in the middle of the rat paw using a digital vernier caliper (Aerospace, Beijing, China).
# COX-2 = target: T1, COX-2 (Homo sapiens, UniProt P35354); assay: Fluorometric COX-2 inhibitor screening kit; type: biochemical
# T1 construct: purchased Abcam, UK
# T1 sequence (P35354 18-604): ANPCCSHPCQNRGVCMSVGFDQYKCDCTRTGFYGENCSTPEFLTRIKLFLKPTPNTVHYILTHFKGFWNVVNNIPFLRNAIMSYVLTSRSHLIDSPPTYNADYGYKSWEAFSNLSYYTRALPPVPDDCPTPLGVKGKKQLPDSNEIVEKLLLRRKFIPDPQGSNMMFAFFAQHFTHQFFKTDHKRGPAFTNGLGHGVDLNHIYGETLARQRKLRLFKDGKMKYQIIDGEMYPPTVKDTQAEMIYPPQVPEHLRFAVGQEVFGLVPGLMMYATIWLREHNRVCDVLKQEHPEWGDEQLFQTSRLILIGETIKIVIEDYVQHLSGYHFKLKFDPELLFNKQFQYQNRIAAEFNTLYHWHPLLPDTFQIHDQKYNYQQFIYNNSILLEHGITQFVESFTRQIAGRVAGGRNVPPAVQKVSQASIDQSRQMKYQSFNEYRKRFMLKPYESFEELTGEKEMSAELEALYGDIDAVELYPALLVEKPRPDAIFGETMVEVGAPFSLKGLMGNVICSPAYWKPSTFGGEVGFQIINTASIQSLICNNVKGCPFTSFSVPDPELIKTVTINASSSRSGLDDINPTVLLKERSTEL
# Protocol: (§1) COX-2 and 5-LOX inhibitory activities were tested using fluorometric COX-2 and 5-LOX inhibitor screening kits (Abcam, UK). These assays are based on the fluorometric detection of Prostaglandin G2 (a product generated by the COX enzyme) or on the fluorometric detection of intermediate generated by the 5-LOX enzyme. The experiments were conducted according to the manufacturers’ instructions.
# (§2) For the determination of COX-2 inhibitory activity, tested compounds were dissolved in DMSO (5 mM stock solutions) and then diluted with the same solvent to obtain test solutions. Test solutions were further diluted 5X with COX assay buffer (2 µL of test solution and 8 µL COX assay buffer). […] Solvent control (SC) was prepared by adding 2 µL DMSO and 8 µL COX assay buffer, while sample (S) and enzyme control (EC) were prepared by adding 10 µL of diluted test solution and COX assay buffer, respectively, into assigned wells. For the determination of 5-LOX inhibitory activity, tested compounds were also dissolved in DMSO to prepare stock solutions with the same concentration (5mM), which were then diluted with the same solvent to obtain test solutions. Subsequently, test solutions were added to corresponding wells (2 µL).
# COX-1 = COX-1 over COX-2; cited from earlier work
# 5-LOX = target: T2, 5-LOX (Homo sapiens, UniProt P09917); assay: Fluorometric 5-LOX inhibitor screening kit; type: biochemical; settings: at 10 µM; mean ± standard error of two measurements; read-out: 5-LOX Percent of Inhibition
# T2 construct: purchased Abcam, UK
# T2 sequence (P09917 1-674): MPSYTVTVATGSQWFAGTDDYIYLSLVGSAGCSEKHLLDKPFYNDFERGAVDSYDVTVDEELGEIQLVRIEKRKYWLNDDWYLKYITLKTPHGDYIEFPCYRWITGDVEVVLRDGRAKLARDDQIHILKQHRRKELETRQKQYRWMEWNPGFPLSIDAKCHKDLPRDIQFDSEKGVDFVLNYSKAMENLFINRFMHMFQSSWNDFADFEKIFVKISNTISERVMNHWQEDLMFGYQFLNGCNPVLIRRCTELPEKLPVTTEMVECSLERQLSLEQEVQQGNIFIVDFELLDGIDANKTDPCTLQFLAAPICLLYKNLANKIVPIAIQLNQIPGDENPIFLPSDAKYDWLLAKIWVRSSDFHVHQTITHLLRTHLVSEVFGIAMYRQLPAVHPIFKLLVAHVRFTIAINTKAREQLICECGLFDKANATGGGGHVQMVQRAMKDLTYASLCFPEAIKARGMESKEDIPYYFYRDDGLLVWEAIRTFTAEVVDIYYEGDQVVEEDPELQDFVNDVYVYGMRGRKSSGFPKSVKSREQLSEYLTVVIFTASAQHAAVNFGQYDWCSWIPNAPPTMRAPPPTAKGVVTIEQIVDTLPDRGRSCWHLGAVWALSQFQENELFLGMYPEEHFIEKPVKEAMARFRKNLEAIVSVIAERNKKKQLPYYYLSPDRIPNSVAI
# Protocol: as §1, §2
compound,measurement,setting,value
"COc1ccc2cc([C@H](C)C(=O)O)ccc2c1 [Naproxen, reference compound]",Rat paw thickness,"[1]; 2.5 mg/kg per os, 1 h after carrageenan",6.20 ± 0.10 mm
same,Rat paw thickness,"[1]; 2.5 mg/kg per os, 2 h after carrageenan",5.87 ± 0.12 mm
same,Rat paw thickness,"[1]; 2.5 mg/kg per os, 3 h after carrageenan",5.60 ± 0.17 mm
same,Rat paw thickness,"[1]; 2.5 mg/kg per os, 4 h after carrageenan",5.03 ± 0.25 mm
same,Rat paw thickness,"[1]; 5.0 mg/kg per os, 1 h after carrageenan",5.87 ± 0.23 mm
same,Rat paw thickness,"[1]; 5.0 mg/kg per os, 2 h after carrageenan",5.37 ± 0.31 mm
same,Rat paw thickness,"[1]; 5.0 mg/kg per os, 3 h after carrageenan",5.07 ± 0.35 mm
same,Rat paw thickness,"[1]; 5.0 mg/kg per os, 4 h after carrageenan",4.83 ± 0.21 mm
same,Rat paw thickness,"[1]; 10.0 mg/kg per os, 1 h after carrageenan",5.73 ± 0.20 mm
same,Rat paw thickness,"[1]; 10.0 mg/kg per os, 2 h after carrageenan",5.40 ± 0.40 mm
same,Rat paw thickness,"[1]; 10.0 mg/kg per os, 3 h after carrageenan",5.20 ± 0.30 mm
same,Rat paw thickness,"[1]; 10.0 mg/kg per os, 4 h after carrageenan",4.80 ± 0.40 mm
same,inhibition in vivo at 2.5 mg/kg,"[1]; 1 h, 2.5 mg/kg per os, 1 h after carrageenan",18.9%
same,inhibition in vivo at 5 mg/kg,"[1]; 1 h, 5.0 mg/kg per os, 1 h after carrageenan",27.1%
same,inhibition in vivo at 10 mg/kg,"[1]; 1 h, 10.0 mg/kg per os, 1 h after carrageenan",35.4%
same,inhibition in vivo at 2.5 mg/kg,"[1]; 2 h, 2.5 mg/kg per os, 2 h after carrageenan",24.9%
same,inhibition in vivo at 5 mg/kg,"[1]; 2 h, 5.0 mg/kg per os, 2 h after carrageenan",41.8%
same,inhibition in vivo at 10 mg/kg,"[1]; 2 h, 10.0 mg/kg per os, 2 h after carrageenan",43.3%
same,inhibition in vivo at 2.5 mg/kg,"[1]; 3 h, 2.5 mg/kg per os, 3 h after carrageenan",25.1%
same,inhibition in vivo at 5 mg/kg,"[1]; 3 h, 5.0 mg/kg per os, 3 h after carrageenan",47.1%
same,inhibition in vivo at 10 mg/kg,"[1]; 3 h, 10.0 mg/kg per os, 3 h after carrageenan",45.2%
same,inhibition in vivo at 2.5 mg/kg,"[1]; 4 h, 2.5 mg/kg per os, 4 h after carrageenan",44.8%
same,inhibition in vivo at 5 mg/kg,"[1]; 4 h, 5.0 mg/kg per os, 4 h after carrageenan",49.4%
same,inhibition in vivo at 10 mg/kg,"[1]; 4 h, 10.0 mg/kg per os, 4 h after carrageenan",56.3%
same,IC50,COX-2,0.2 ± 0.02 µM
same,inhibition at 10 µM,COX-2; read-out: COX-2 Percent of Inhibition,72.2 ± 1.4%
same,Selectivity for COX-1,COX-1,approximately five
"CC(c1cc2ccccc2s1)N(O)C(N)=O (stereo not shown) [Zileuton, reference compound]",inhibition at 10 µM,5-LOX,64.85 ± 0.39%

# From PMC10222328 (Pharmaceuticals, 2023)
